Here are results for 7 molecules from patent publication US4875922A, “Pyrimidine derivatives” (Imperial Chemical Industries PLC, priority 1986, dated 1989).

In test [1] the test system is Spring Barley. The experiment in a line: Intermediate Retardant Test, spring barley. The format is in vivo, Spring Barley (Atem/kym). As to conditions: Hordeum vulgare, 672 h, read-out: Percentage Reduction in Height of Spring Barley (Compared to formulation blank). From the text: (§1) Three species are involved in this test RICE, SPRING-BARLEY and APPLES. The variety and growth stages at spray are outlined in Table V. Compounds were applied at 500 ppm and 2000 ppm respectively (0.5 kg and 2 kg/ha^-1 at a field volume of 1000 l/ha^-1) as an overall spray except in the case of certain tests on APPLES. This gives a foliar and root component in the test, i.e., this test will detect the activity of both root and foliar acting compounds. The intermediate retardant test on APPLES of which the results are given in Table IX was different, in that a foliar (only) spray at 2000 ppm was compared with a root drench, also at 2000 ppm. The rice was grown in 4" `paddy` pots, i.e., the roots and bottom of the stems are immersed in water under conditions corresponding to those in paddy fields. Spring barley and apples were grown in 4" pots. The plants were assessed for height to top-most ligule at approximately 28 days after treatment for spring barley and rice and for height to apex at approximately 28 days after the treatment for apples. In each case the result for the 500 ppm and 2000 ppm test for each compound is compared to the height of the formulation blank in that test, presented as a percentage reduction in height compared to the formulation blank.
(§2) The prior art compound was compared with compounds of the present invention in side-by-side comparisons using the Intermediate Retardant Test described in Example 62, and the results are given in Tables X to XII where `A` is the prior art compound, 2-methyl-1-isopropyl-1-(pyrimidin-5-yl)-propan-1-ol).

For test [2], the system named is Rice. In words: Intermediate Retardant Test, rice. Type of test: in vivo, Rice (Ishikari). The settings on record: Oryza sativa, 672 h, read-out: Percentage Reduction in Height of Rice (Compared to formulation blank).
Excerpt: as §1, §2

Test [3] relates to Apples. In words: Intermediate Retardant Test, apples, foliar spray compared with root drench. Type of test: in vivo, Apples (Red Delicious). The settings on record: 672 h, read-out: Percentage Reduction in Height of Apples (Compared to formulation blank); for percent reduction in plant height at 2000 µg/mL: soil, 2000 pmm (Root), root drench.
Excerpt: as §1, §2

The test system of test [4] is Barley. The experiment in a line: Whole plant screen for plant growth regulator activity, barley (BR). Type of test: in vivo, Barley (Atem). As to conditions: BR, 4000 ppm (4 kg/ha), visual score after 2-6 weeks; for T = Tillering or side shooting: * = decrease in tillering. The procedure: (§3) Compounds 1 to 3 in Table 1 were tested for plant growth regulator activity against five species for various growth effects relevant to plant growth regulation.
(§4) The plant species used in this screen are presented in Table II with the leaf stage at which they were sprayed. Each chemical was applied at 4000 ppm (4 kg/ha in a 1000 l/ha field volume) using a tracksprayer and a SS8004E (Teejet) nozzle.
(§5) After spray the plants were grown in a glasshouse with 25° C. day/22° C. night temperatures and supplementary lighting was supplied when necessary (from mercury vapour lamps), to provide a 16 hour photoperiod. The exception to this were the temperate cereals, wheat and barley which were grown in 16° C. day/13° C. night temperatures.
(§6) After 2-6 weeks in the glasshouse, depending on the time of year, the plants were visually assessed for morphological characteristics. Formulation blanks were used as controls to assess the plants.
(§7) Additional compounds in Table I were tested for plant growth regulator activity using the method of Example 60 except that Tomato was included in the test as an additional species. Tomato, Ailsa Craig, was grown in a single 3 inch pot in peat and treated at the 2 to 21/2 leaves growth stage. The results were presented in Table IV in which Tomato is indicated by the code TO and the Key is otherwise as for Table III.

Test [5] deals with Wheat. In words: Whole plant screen for plant growth regulator activity, wheat (WW). Type of test: in vivo, Wheat (Timmo). The settings on record: WW, 4000 ppm (4 kg/ha), visual score after 2-6 weeks; for T = Tillering or side shooting: * = decrease in tillering. The procedure: as §3, §4, §5, §6, §7
Test [6] concerns Tomato. The experiment in a line: Whole plant screen for plant growth regulator activity, tomato (TO). The format is in vivo, Tomato (Ailsa Craig). As to conditions: 4000 ppm (4 kg/ha), visual score after 2-6 weeks. The protocol: as §4, §5, §6, §7
An astrisk (*) after a score under "T" (tillering) indicated a decrease in tillering.

In test [7] the test system is Rice. The experiment in a line: Whole plant screen for plant growth regulator activity, rice (RC). Type of test: in vivo, Rice (Ishikari). As to conditions: 4000 ppm (4 kg/ha), visual score after 2-6 weeks; for T = Tillering or side shooting: * = decrease in tillering. The procedure:
as §3, §4, §5, §6, §7

Test [8] has as its system Apple. The experiment in a line: Whole plant screen for plant growth regulator activity, apple (AP). The format is in vivo, Apple (Red Delicious). As to conditions: 4000 ppm (4 kg/ha), visual score after 2-6 weeks. The protocol: as §3, §4, §5, §6, §7
Where [9] appears, read: side-by-side comparison with prior art compound, Table XI.
Where [10] appears, read: side-by-side comparison with prior art compound, Table X.
The mark [11] stands for this setting: 2000 ppm (Foliar), side-by-side comparison with prior art compound, Table XII.
[12] abbreviates: 2000 ppm (Root), side-by-side comparison with prior art compound, Table XII.
Where [13] appears, read: overall spray, approximately 28 days, Table VII.
The mark [14] stands for this setting: overall spray, approximately 28 days, Table VI.
[15] abbreviates: 2000 ppm (Foliar), approximately 28 days, Table IX.
The mark [16] stands for this setting: approximately 28 days, Table IX.

Like-named read-outs stand apart in the source and are kept apart here.

With `CC(C)C(O)(c1cncnc1)C(C)C` [A, 2-methyl-1-isopropyl-1-(pyrimidin-5-yl)-propan-1-ol, reference compound], in test [1] (setting [9]), the percent reduction in plant height at 500 ppm was 0% and the percent reduction in plant height at 2000 ppm is 0%. In test [2] (setting [10]), the Percent reduction in rice height vs formulation blank at 500 ppm was 2% and the Percent reduction in rice height vs formulation blank at 2000 ppm was determined as 0%. Besides, the percent reduction in plant height at 2000 ppm in test [3] (setting [11]) was 0%. In test [3] (setting [12]), the percent reduction in plant height at 2000 ppm was 23.5%.

In the case of `CC(C)CC#CC(O)(c1cncnc1)C(C)C` (stereo not drawn) [Compound 4, 2-methyl-1-(4-methylpent-1-yne)-1-(pyrimidin-5-yl)-propan-1-ol], in test [1] (setting [9]), the percent reduction in plant height at 500 ppm turned out to be 53% and the percent reduction in plant height at 2000 ppm turned out to be 64%. Also, in test [2] (setting [10]), the Percent reduction in rice height vs formulation blank at 500 ppm worked out at 45% and the Percent reduction in rice height vs formulation blank at 2000 ppm came to 66%. Moreover, the percent reduction in plant height at 2000 ppm in test [3] (setting [11]) was 46.8%. Further, the percent reduction in plant height at 2000 ppm in test [3] (setting [12]) was 64.6%.

For `CCC(C)C#CC(O)(c1cncnc1)C(C)C` (stereo not drawn) [Compound 5, 2-Methyl-1-(3-methylpent-1-yne)-1-(pyrimidin-5-yl)-propan-1-ol], in test [4], the “G = Greening effect” value is listed as 1 (10-30%), the “I = Interligular or internodal length reduction” value was 3 (61-100%), the “R = Retardation” value is recorded as 3 (61-100%) and the “T = Tillering or side shooting” value is on record as 3 (61-100%). Besides, in test [5], the “G = Greening effect” value is 2 (31-60%), the “I = Interligular or internodal length reduction” value is 3 (61-100%), the “R = Retardation” value is listed as 3 (61-100%) and the “T = Tillering or side shooting” value is recorded as 1 (10-30%). Moreover, in test [6], the “G = Greening effect” value is 2 (31-60%), the “I = Interligular or internodal length reduction” value is 2 (31-60%) and the “R = Retardation” value is listed as 2 (31-60%). Further, in test [1] (setting [13]), the percent reduction in plant height at 500 ppm turned out to be 38% and the percent reduction in plant height at 2000 ppm is 72%. Besides, in test [7], the “I = Interligular or internodal length reduction” value is listed as 2 (31-60%), the “R = Retardation” value is 2 (31-60%) and the “T = Tillering or side shooting” value is 1 (10-30%). In test [2] (setting [14]), the Percent reduction in rice height vs formulation blank at 500 ppm was determined as 39% and the Percent reduction in rice height vs formulation blank at 2000 ppm came out at 68%. Further, the percent reduction in plant height at 2000 ppm in test [3] (setting [15]) turned out to be 25.6%. Moreover, in test [3] (setting [16]), the percent reduction in plant height at 2000 µg/mL amounted to 76.1%.

In the case of `CCC(C)CC#CC(O)(c1cncnc1)C(C)C` (stereo not drawn) [Compound 11, 2-Methyl-1-(4-methylhex-1-yne)-1-(pyrimidin-5-yl)propan-1-ol], in test [1] (setting [13]), the percent reduction in plant height at 500 ppm amounted to 5% and the percent reduction in plant height at 2000 ppm stood at 47%. In test [2] (setting [14]), the Percent reduction in rice height vs formulation blank at 500 ppm is 4% and the Percent reduction in rice height vs formulation blank at 2000 ppm amounted to 14%. In addition, the percent reduction in plant height at 2000 ppm in test [3] (setting [15]) was found to be 6%. Besides, the percent reduction in plant height at 2000 µg/mL in test [3] (setting [16]) turned out to be 55%.

As for `CCCCCC(O)(c1cncnc1)C(C)(C)C` (stereo not drawn) [Compound 15, 2,2-Dimethyl-1-(pentyl)-1-(pyrimidin-5-yl)-propan-1-ol], in test [4], the “I = Interligular or internodal length reduction” value is on record as 2 (31-60%) and the “R = Retardation” value is on record as 2 (31-60%). In test [5], the “G = Greening effect” value is on record as 1 (10-30%), the “I = Interligular or internodal length reduction” value is 3 (61-100%), the “R = Retardation” value is recorded as 2 (31-60%) and the “T = Tillering or side shooting” value is on record as 1 (10-30%). Moreover, in test [6], the “G = Greening effect” value is reported as 2 (31-60%), the “I = Interligular or internodal length reduction” value is on record as 2 (31-60%) and the “R = Retardation” value is reported as 2 (31-60%). In test [1] (setting [13]), the percent reduction in plant height at 500 ppm was determined as 14% and the percent reduction in plant height at 2000 ppm came to 33%. Further, in test [2] (setting [14]), the Percent reduction in rice height vs formulation blank at 500 ppm was found to be 13% and the Percent reduction in rice height vs formulation blank at 2000 ppm stood at 39%. Further, the percent reduction in plant height at 2000 ppm in test [3] (setting [15]) was 44.2%. The percent reduction in plant height at 2000 µg/mL in test [3] (setting [16]) came out at 71.1%.

`CC(C)CCC(O)(c1cncnc1)C(C)(C)C` (stereo not drawn) [Compound 29]: the “G = Greening effect” value is 1 (10-30%) in test [8], 2 (31-60%) in test [5], 1 (10-30%) in test [6] and 1 (10-30%) in test [7]. Also, the “I = Interligular or internodal length reduction” value was 2 (31-60%) in test [8]; 2 (31-60%) in test [4]; 3 (61-100%) in test [5]; 2 (31-60%) in test [6]; 3 (61-100%) in test [7]. Further, the “R = Retardation” value in test [8], in test [4], in test [5], in test [6] and in test [7] was 2 (31-60%) each time. Moreover, the “T = Tillering or side shooting” value was 2 (31-60%) in test [4], 2 (31-60%) in test [5] and 1 (10-30%) in test [7].

Regarding `CCCCCCC(O)(c1cncnc1)C(C)(C)C` (stereo not drawn) [Compound 30], the “I = Interligular or internodal length reduction” value in test [8] is 2 (31-60%); in test [4] it was 3 (61-100%); in test [5], 3 (61-100%); in test [6] it was 2 (31-60%); in test [7], 3 (61-100%). For the same molecule, the “R = Retardation” value is listed as 2 (31-60%) in test [8]; 2 (31-60%) in test [4]; 3 (61-100%) in test [5]; 2 (31-60%) in test [6]; 2 (31-60%) in test [7]. The “G = Greening effect” value in test [4] is on record as 1 (10-30%); in test [5] it was 2 (31-60%); in test [6], 2 (31-60%); in test [7], 2 (31-60%). For the same molecule, the “T = Tillering or side shooting” value was 2 (31-60%) in test [4], 3 (61-100%) in test [5] and 3 (61-100%) in test [7].
